Source: ChEMBL document CHEMBL1153434, “Pyridoimidazolones as novel potent inhibitors of v-Raf murine sarcoma viral oncogene homologue B1 (BRAF)” (J Med Chem, 2009)

How the values were obtained:
[1] = Growth inhibition of human WM266.4 cells expressing BRAF mutant by SRB assay; type: functional, cell-based; settings: WM 266-4
[2] = molecular target: Serine/threonine-protein kinase B-raf (Homo sapiens, UniProt P15056, V600E)
Description: Inhibition of BRAF V600E mutant

[3] = Metabolic stability in mouse liver microsomes assessed as drug metabolism at 10 uM; type: ADME, Microsome; settings: read-out: Activity
[4] = Cmax in BALB/cAnNCrl mouse plasma at 2 mg/kg, iv; type: ADME, organism-based; design: dose 2 mg/kg, route intravenous
[5] = Cmax in BALB/cAnNCrl mouse muscle at 2 mg/kg, iv; type: ADME, organism-based, Muscle tissue; design: dose 2 mg/kg, route intravenous
[6] = AUC in BALB/cAnNCrl mouse plasma at 2 mg/kg, iv; type: ADME, organism-based; design: dose 2 mg/kg, route intravenous
[7] = AUC in BALB/cAnNCrl mouse muscle at 2 mg/kg, iv; type: ADME, organism-based, Muscle tissue; design: dose 2 mg/kg, route intravenous
[8] = Half life in BALB/cAnNCrl mouse plasma at 2 mg/kg, iv; type: ADME, organism-based; design: dose 2 mg/kg, route intravenous
[9] = Half life in BALB/cAnNCrl mouse muscle at 2 mg/kg, iv; type: ADME, organism-based, Muscle tissue; design: dose 2 mg/kg, route intravenous
[10] = Clearance in BALB/cAnNCrl mouse plasma at 2 mg/kg, iv; type: ADME, organism-based; design: dose 2 mg/kg, route intravenous
Muscle tissue = assay: Clearance in BALB/cAnNCrl mouse muscle at 2 mg/kg, iv; type: ADME, organism-based; design: dose 2 mg/kg, route intravenous; settings: in vivo
[11] = Cmax in plasma of BRAF mutant expressing WM266.4 cells xenografted Crl:CD1-Foxn1nu mouse at 2 mg/kg, iv; type: ADME, organism-based; design: dose 2 mg/kg, route intravenous
[12] = Cmax in tumor of BRAF mutant expressing WM266.4 cells xenografted Crl:CD1-Foxn1nu mouse at 2 mg/kg, iv; type: ADME, organism-based, Neoplasm; design: dose 2 mg/kg, route intravenous; settings: read-out: Cmax_tumor
[13] = AUC in plasma of BRAF mutant expressing WM266.4 cells xenografted Crl:CD1-Foxn1nu mouse at 2 mg/kg, iv; type: ADME, organism-based; design: dose 2 mg/kg, route intravenous
[14] = AUC in tumor of BRAF mutant expressing WM266.4 cells xenografted Crl:CD1-Foxn1nu mouse at 2 mg/kg, iv; type: ADME, organism-based, Neoplasm; design: dose 2 mg/kg, route intravenous
[15] = Half life in plasma of BRAF mutant expressing WM266.4 cells xenografted Crl:CD1-Foxn1nu mouse at 2 mg/kg, iv; type: ADME, organism-based; design: dose 2 mg/kg, route intravenous
[16] = Half life in tumor of BRAF mutant expressing WM266.4 cells xenografted Crl:CD1-Foxn1nu mouse at 2 mg/kg, iv; type: ADME, organism-based, Neoplasm; design: dose 2 mg/kg, route intravenous
[17] = Clearance in plasma of BRAF mutant expressing WM266.4 cells xenografted Crl:CD1-Foxn1nu mouse at 2 mg/kg, iv; type: ADME, organism-based; design: dose 2 mg/kg, route intravenous
[18] = Clearance in tumor of BRAF mutant expressing WM266.4 cells xenografted Crl:CD1-Foxn1nu mouse at 2 mg/kg, iv; type: ADME, organism-based, Neoplasm; design: dose 2 mg/kg, route intravenous; settings: in vivo

Chain of Serine/threonine-protein kinase B-raf (P15056 2-766 V600E limits assumed): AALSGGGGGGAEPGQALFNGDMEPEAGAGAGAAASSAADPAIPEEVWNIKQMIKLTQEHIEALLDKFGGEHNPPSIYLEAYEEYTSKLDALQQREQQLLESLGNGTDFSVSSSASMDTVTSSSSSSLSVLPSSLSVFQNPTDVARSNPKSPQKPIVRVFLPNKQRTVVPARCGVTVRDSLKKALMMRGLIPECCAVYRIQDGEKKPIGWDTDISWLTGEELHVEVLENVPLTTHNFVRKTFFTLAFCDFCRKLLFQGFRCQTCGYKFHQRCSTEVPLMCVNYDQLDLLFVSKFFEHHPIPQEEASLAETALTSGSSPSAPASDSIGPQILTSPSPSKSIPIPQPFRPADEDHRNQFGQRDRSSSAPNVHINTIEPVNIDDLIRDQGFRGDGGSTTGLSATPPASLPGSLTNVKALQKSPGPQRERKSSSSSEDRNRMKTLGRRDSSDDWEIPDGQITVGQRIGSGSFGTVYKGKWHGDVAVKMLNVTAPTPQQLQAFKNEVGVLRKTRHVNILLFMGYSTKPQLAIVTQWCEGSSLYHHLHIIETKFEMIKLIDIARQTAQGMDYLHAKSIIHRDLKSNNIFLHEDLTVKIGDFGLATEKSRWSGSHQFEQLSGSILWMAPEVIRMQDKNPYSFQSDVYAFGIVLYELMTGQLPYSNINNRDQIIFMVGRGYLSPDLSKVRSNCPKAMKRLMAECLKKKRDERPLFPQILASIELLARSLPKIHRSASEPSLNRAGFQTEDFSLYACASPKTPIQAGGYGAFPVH

| Compound | IC50 [1] [µM] | IC50 [2] [µM] | also measured |
| --- | --- | --- | --- |
| COc1ccc(C(F)(F)F)cc1NC(=O)Nc1ccc(Oc2ccnc3[nH]c(=O)[nH]c23)cc1 | 4.2 | 0.012 |  |
| O=c1[nH]c2nccc(Oc3ccc(NC(=S)Nc4ccc(Cl)c(C(F)(F)F)c4)cc3)c2[nH]1 | 10.7 | 0.085 |  |
| O=C(Nc1ccc(Oc2ccnc3[nH]c(=O)[nH]c23)cc1)Nc1cc(C(F)(F)F)ccc1F | 3.3 | 0.052 |  |
| O=c1[nH]c2nccc(Oc3ccc(NS(=O)(=O)c4ccc(C(F)(F)F)cc4)cc3)c2[nH]1 | 41 | > 100 |  |
| COc1cc(Cl)c(C(F)(F)F)cc1NC(=O)Nc1ccc(Oc2ccnc3[nH]c(=O)[nH]c23)cc1 | 1.6 | 0.027 | metabolised at 10 µM [3]: 8% |
| O=C(Nc1ccc(Oc2ccnc3[nH]c(=O)[nH]c23)cc1)c1cccc(C(F)(F)F)c1 | 22 | 17.2 |  |
| O=c1[nH]c2nccc(Oc3ccc(NS(=O)(=O)c4cccs4)cc3)c2[nH]1 | 15.6 | 12.2 |  |
| O=C(Cc1ccccc1)Nc1ccc(Oc2ccnc3[nH]c(=O)[nH]c23)cc1 | 73 | 16.7 |  |
| O=C(Nc1ccc(Oc2ccnc3[nH]c(=O)[nH]c23)cc1)Nc1ccc(C(F)(F)F)cc1 | > 100 | > 100 |  |
| O=C(Nc1ccc(Oc2ccnc3[nH]c(=O)[nH]c23)cc1)Nc1cc(Cl)cc(C(F)(F)F)c1 | 12.8 | 0.1 |  |
| Cn1c(=O)[nH]c2c(Oc3ccc(NC(=O)Nc4ccc(Cl)c(C(F)(F)F)c4)cc3)ccnc21 | 3.7 | 0.045 | Cmax [4]: 3230 nM; Cmax [5]: 8080 nM; AUC [6]: 16.4 µM·h; AUC [7]: 9.46 µM·h; half-life [8]: 4.72 h; half-life [9]: 4.35 h; clearance [10]: 0.833 mL/min; CL (Muscle tissue): 0.009 L/h |
| O=C(Nc1ccc(Sc2ccnc3[nH]c(=O)[nH]c23)cc1)Nc1ccc(Cl)c(C(F)(F)F)c1 | 2.1 | 0.04 |  |
| Cn1c(=O)n(C)c2c(Oc3ccc(NC(=O)Nc4ccc(Cl)c(C(F)(F)F)c4)cc3)ccnc21 | 4.8 | 0.061 |  |
| COc1cccc(CC(=O)Nc2ccc(Oc3ccnc4[nH]c(=O)[nH]c34)cc2)c1 | 40 |  |  |
| O=C(Nc1ccc(Oc2ccnc3[nH]c(=O)[nH]c23)cc1)Nc1cc(C(F)(F)F)ccc1N1CCOCC1 | 5.2 | 0.86 |  |
| Cn1c(=O)[nH]c2c(Oc3ccc(NC(=O)Nc4cc(C(F)(F)F)ccc4F)cc3)ccnc21 | 1.94 | 0.046 |  |
| O=C(Nc1ccc(Sc2ccnc3[nH]c(=O)[nH]c23)cc1)Nc1cccc(C(F)(F)F)c1 | 1.42 | 0.028 |  |
| O=C(Cc1cccc(OC(F)(F)F)c1)Nc1ccc(Oc2ccnc3[nH]c(=O)[nH]c23)cc1 | 23.9 |  |  |
| O=C(Nc1ccc(Oc2ccnc3[nH]c(=O)[nH]c23)cc1)c1cc(F)cc(N2CCOCC2)c1 | 44 | > 100 |  |
| O=C(Nc1ccc(Cl)cc1)Nc1ccc(Oc2ccnc3[nH]c(=O)[nH]c23)cc1 | > 100 | > 100 |  |
| O=c1[nH]c2nccc(Oc3ccc(NS(=O)(=O)c4ccc(F)cc4)cc3)c2[nH]1 |  | > 100 |  |
| O=C(Nc1ccccc1)Nc1ccc(Oc2ccnc3[nH]c(=O)[nH]c23)cc1 | > 100 | > 100 |  |

| Compound | IC50 [1] [µM] | IC50 [2] [µM] | also measured |
| --- | --- | --- | --- |
| O=C(Nc1ccc(Oc2ccnc3[nH]c(=O)[nH]c23)cc1)Nc1cccc(F)c1 | 13.9 | 2.84 |  |
| O=C(Nc1ccc(Sc2ccnc3[nH]c(=O)[nH]c23)cc1)Nc1cc(C(F)(F)F)ccc1F | 1.28 | 0.029 |  |
| O=c1[nH]c2nccc(Oc3ccc(NS(=O)(=O)c4ccc(Cl)c(C(F)(F)F)c4)cc3)c2[nH]1 | 40.3 | > 100 |  |
| O=C(Nc1ccc(Oc2ccnc3[nH]c(=O)[nH]c23)cc1)c1ccc(Cl)c(C(F)(F)F)c1 | 8.1 | 15.9 |  |
| O=C(Nc1ccc(Oc2ccnc3[nH]c(=O)[nH]c23)cc1)c1cccc(Br)c1 | 18 | 14 |  |
| O=C(Nc1ccc(Oc2ccnc3[nH]c(=O)[nH]c23)cc1)Nc1cc(F)cc(N2CCOCC2)c1 | 41 | 0.6 |  |
| Cn1c(=O)[nH]c2nccc(Oc3ccc(NC(=O)Nc4ccc(Cl)c(C(F)(F)F)c4)cc3)c21 | 5.3 | 0.022 | metabolised at 10 µM [3]: 11%; Cmax [11]: 2450 nM; Cmax [12]: 1150 nM; AUC [13]: 3.26 µM·h; AUC [14]: 4.5 µM·h; half-life [15]: 2.58 h; half-life [16]: 9.72 h; clearance [17]: 0.283 mL/min; CL [18]: 0.006 L/h |
| O=C(Nc1ccc(Oc2ccnc3[nH]c(=O)[nH]c23)cc1)Nc1cccc(C(F)(F)F)c1 | > 100 | 0.014 |  |
| Cn1c(=O)[nH]c2c(Oc3ccc(NC(=O)Nc4cccc(C(C)(C)C)c4)cc3)ccnc21 | 7 | 0.06 |  |
| O=C(Nc1ccc(Oc2ccnc3[nH]c(=O)[nH]c23)cc1)c1cccc(OC(F)(F)F)c1 | > 100 | > 100 |  |
| O=C(Nc1ccc(Oc2ccnc3[nH]c(=O)[nH]c23)cc1)Nc1cccc(OC(F)(F)F)c1 | > 100 | 0.021 |  |
| O=C(Nc1ccc(Oc2ccnc3[nH]c(=O)[nH]c23)cc1)Nc1ccc(Cl)c(C(F)(F)F)c1 | 4.2 | 0.023 | metabolised at 10 µM [3]: 0%; Cmax [11]: 1060 nM; Cmax [12]: 207 nM; AUC [13]: 0.718 µM·h; AUC [14]: 0.468 µM·h; half-life [15]: 0.8 h; half-life [16]: 1.24 h; clearance [17]: 1.95 mL/min; CL [18]: 0.16 L/h |
| CNC(=O)c1cc(Oc2ccc(NC(=O)Nc3ccc(Cl)c(C(F)(F)F)c3)cc2)ccn1 [SORAFENIB] | 5 |  |  |
| O=c1[nH]c2nccc(Oc3ccc(NS(=O)(=O)c4ccccc4)cc3)c2[nH]1 | 62.7 | 0.85 | metabolised at 10 µM [3]: 5% |
| O=c1[nH]c2nccc(Oc3ccc(NS(=O)(=O)c4ccccc4F)cc3)c2[nH]1 | 62 | 32.5 |  |
| O=C(Nc1ccc(Oc2ccnc3[nH]c(=O)[nH]c23)cc1)Nc1ccccc1C(F)(F)F | > 100 | > 100 |  |
| O=C(Cc1cc(F)cc(F)c1)Nc1ccc(Oc2ccnc3[nH]c(=O)[nH]c23)cc1 | 29 | > 100 |  |
| O=c1[nH]c2nccc(Oc3ccc(NS(=O)(=O)c4ccc(Cl)cc4)cc3)c2[nH]1 | 39 | > 100 |  |
| O=C(Cc1cccc(C(F)(F)F)c1)Nc1ccc(Oc2ccnc3[nH]c(=O)[nH]c23)cc1 | 5 |  |  |
| Cn1c(=O)[nH]c2nccc(Oc3ccc(NC(=O)Nc4cccc(C(C)(C)C)c4)cc3)c21 | 2.82 | 0.163 |  |
| CCn1c(=O)n(CC)c2c(Oc3ccc(NC(=O)Nc4ccc(Cl)c(C(F)(F)F)c4)cc3)ccnc21 | 22 | 0.305 |  |
| O=C(Nc1ccc(Oc2ccnc3[nH]c(=O)[nH]c23)cc1)c1ccccc1 | > 100 | > 100 |  |
